Here are results for 1 molecule from patent US20240325420A1, “COMPOSITION INCLUDING PAEONIFLORIN FOR PREVENTION OR TREATMENT OF CACHEXIA AND MUSCLE LOSS” (CHUNG ANG UNIVERSITY INDUSTRY ACADEMIC COOPERATION …, priority 2021, published 2024).

Assay [1] concerns myosin heavy chain (MyHC) and myoblast determination protein (MyoD). Nature of the assay: Protein levels of MyHC and MyoD in gastrocnemius muscle by Western blotting. In kind it is in vivo. The conditions noted are these: C57BL/6 mice, cisplatin-treated, Pae 10 and Pae 20 vs vehicle. The procedure: (§1) In addition, cisplatin-treated mice orally administered the same volume of distilled water were designated as the vehicle group. After completion of drug treatment, the mice of each group were euthanized with 10 mg/kg alfaxalone (Jurox, Rutherford, Australia). Blood was collected in test tubes containing EDTA, and centrifuged, and plasma was separated therefrom. Gastrocnemius and quadriceps skeletal muscles were dissected and weighed. The skeletal muscles were rapidly frozen in liquid nitrogen to be used for RT-qPCR, Western blotting, and ELISA.
(§2) Proteins were extracted from skeletal muscle using NucleoSpin kits (Macherey-Nagel, Duren, Germany) and quantified using the BCA Protein Assay Kit (Pierce, Rockford, IL, USA). Anti-β-actin antibody was used to quantify protein loading. For myosin protein (MyHC, myosin heavy chain), myogenic factor (MyoD), and NF-κB signaling system (p-IKK, IKK, p-IκB, and IκB), protein levels in the gastrocnemius muscle were measured by Western blotting. Band intensities were quantified using ImageJ software (NIH, Bethesda, MD, USA).
(§3) In order to measure the mRNA and protein levels of major factors involved in muscle loss, muscle contraction, and muscle differentiation, the mRNA and protein levels in the skeletal muscle tissues from C57BL/6 mice were measured by real-time PCR and Western blotting.

Assay [2] relates to GDF-15. As to the kind of experiment: GDF-15 by ELISA in C57BL/6 mice with Lewis lung carcinoma-induced cachexia. Type of assay: in vivo. The conditions noted are these: Lewis lung carcinoma-injected, paeoniflorin orally for 9 days, FIG. 18. How it is done:
Each mouse of the control group was injected subcutaneously with 100 μL of saline solution. For the cachexia-induced groups, Lewis lung carcinoma cells (C57BL/6 mice) or colon-26 carcinoma cells (Balb/c mice) were injected subcutaneously into the flank area of each mouse at a dose of 10^6 cells/100 μL/mouse. […] After completion of 9 days of administration, the muscle strength of the mice was measured using a grip strength test device (Bioseb, USA), and the endurance of the mice was measured using a treadmill device (Columbus Instrument, USA).
(§4) After completion of the experiment, the mice were euthanized, blood was collected therefrom, the body weight excluding tumors, and the weights of the hind limb gastrocnemius muscle and quadriceps muscle were measured. GDF-15 in the serum was quantified by ELISA.
After oral administration of paeoniflorin to the tumor-induced mice for 9 days, blood was collected from the mice, and the plasma concentration of GDF-15 protein was analyzed by ELISA.

Assay [3] has as its system muscle-specific ubiquitin E3 ligases (MuRF1 and MAFbx). As to the kind of experiment: Protein levels of MuRF1 and MAFbx in gastrocnemius muscle by Western blotting. Type of assay: in vivo. The following applies: C57BL/6 mice, cisplatin-treated, Pae 10 and Pae 20 vs vehicle. How it is done: as §1, §2, §3
Assay [4] has as its system C57BL/6 mice with Lewis lung carcinoma-induced cachexia. Nature of the assay: Body weight and muscle mass in C57BL/6 mice with Lewis lung carcinoma-induced cachexia. In kind it is in vivo. How it is done: As the experimental animals, 4-week-old female C57BL/6 mice and Balb/c mice weighing 18 g to 20 g were purchased from Raon Bio (Yongin, Korea), acclimatized in the laboratory animal facility for one week, and then used in the experiment. During the experiment period, the animals were provided with solid feed and water ad libitum, and the breeding room was maintained at a temperature of 20° C. to 24° C. and a relative humidity of 55% to 65% with a 12-hr light/12-hr dark cycle.
Mice were divided into a control group and a cachexia-induced group, and the cachexia-induced group was subdivided into a tumor cell-injected group, a tumor cell-injected and existing drug (MA, megestrol acetate)-administered group, and tumor cell-injected and paeoniflorin (Pae)-administered groups. Each group consisted of 10 animals.
Each mouse of the control group was injected subcutaneously with 100 μL of saline solution. For the cachexia-induced groups, Lewis lung carcinoma cells (C57BL/6 mice) or colon-26 carcinoma cells (Balb/c mice) were injected subcutaneously into the flank area of each mouse at a dose of 10^6 cells/100 μL/mouse. After 2 weeks, when a distinct tumor was formed, the tumor cell-injected group was orally administered distilled water, the tumor cell-injected and existing drug-administered group was orally administered megestrol acetate (MA), which is currently most commonly prescribed for cancer cachexia patients in clinical practice, at a dose of 160 mg/kg (=800 mg [daily human dose]/60 kg [average human body weight]×12 [dose equivalent factor based on human:mouse body surface area ratio], once daily for 9 days, and the tumor cell-injected and paeoniflorin-administered groups were orally administered paeoniflorin (prepared in Example 1) once daily for 9 days at doses of 5 (Pae 5 group), 10 (Pae 10 group) and 20 (Pae 20 group) mg/kg, respectively. After completion of 9 days of administration, the muscle strength of the mice was measured using a grip strength test device (Bioseb, USA), and the endurance of the mice was measured using a treadmill device (Columbus Instrument, USA).
as §4

The test system of assay [5] is muscle-specific ubiquitin E3 ligases (MuRF1 and MAFbx). Nature of the assay: mRNA levels of MuRF1 and MAFbx in gastrocnemius muscle by real-time PCR. In kind it is in vivo. The conditions noted are these: C57BL/6 mice, cisplatin-treated, Pae 10 and Pae 20 vs vehicle, FIG. 5. How it is done: as §1
Total RNA was isolated from skeletal muscle using Qiazol (Qiagen, Germany), and then the mRNA levels of pro-inflammatory cytokines and muscle-specific ubiquitin E3 ligases (MuRF1 and MAFbx) were measured by real-time PCR.
as §3

The subject of assay [6] is GDF-15. As to the kind of experiment: Plasma GDF-15 by ELISA in mice with cisplatin-induced cachexia. Type of assay: in vivo. The following applies: C57B/6 mice; cisplatin plus paeoniflorin-treated group vs cisplatin-treated group; FIG. 13B. How it is done:
as §1
The levels of TNF-α and interleukin (IL)-6 were measured using respective mouse ELISA kits (Invitrogen, Waltham, MA, USA). IL-1β and GDF-15 levels were measured using respective Quantikine ELISA kits (R&D Systems, Minneapolis, MN, USA).
The protein concentration of GDF-15 in the plasma was analyzed by ELISA.

Assay [7] deals with C2C12 myoblasts. As to the kind of experiment: Myotube differentiation of C2C12 myoblasts. Type of assay: cell-based. How it is done: C2C12 myoblasts were purchased from ATCC (Manassas, Virginia, USA) and cultured using DMEM containing 10% fetal bovine serum. After the cells reached 70% confluence, myotube differentiation was induced while the medium was replaced with DMEM containing 2% horse serum every two days. A negative control group was treated with […] of TNF-α, which inhibits myotube differentiation. While the myoblasts were treated with paeoniflorin at a concentration of 50 to 200 μM along with TNF-α, the degree of myotube differentiation was observed and the length of differentiated myotubes was measured using the Image J program.

Consider `C[C@@]12C[C@@]3(O)O[C@@H](O1)[C@]1(COC(=O)c4ccccc4)[C@H]3C[C@@]12O[C@@H]1O[C@H](CO)[C@@H](O)[C@H](O)[C@H]1O` [paeoniflorin], for which the MyHC protein level entry in assay [1] (FIGS. 6C, 7A) is given as “increased”. Further, the MyoD protein level result in assay [1] (FIGS. 6D, 7B) was “increased”. Besides, in assay [2], the “serum concentration of GDF-15” value was “significantly decreased”. For the same molecule, the MuRF1 protein level result in assay [3] (FIG. 6A) is on record as “decreased”. In addition, the MAFbx protein level entry in assay [3] (FIG. 6B) is “decreased”. Moreover, the body weight result in assay [4] (C57BL/6 mice, Lewis lung carcinoma-injected, paeoniflorin orally once daily for 9 days vs Lewis lung carcinoma-injected group, FIG. 14A) was “significantly increased”. The “weight of gastrocnemius muscle” value in assay [4] (C57BL/6 mice, Lewis lung carcinoma-injected, paeoniflorin orally once daily for 9 days vs Lewis lung carcinoma-injected group, FIG. 14B) was “significantly increased”. For the same molecule, the “weight of quadriceps muscle” value in assay [4] (C57BL/6 mice, Lewis lung carcinoma-injected, paeoniflorin orally once daily for 9 days vs Lewis lung carcinoma-injected group, FIG. 14C) is given as “significantly increased”. Further, the “effect on body weight and muscle mass compared with megestrol acetate (MA)” value in assay [4] (Lewis lung carcinoma C57BL/6 mice, paeoniflorin 10 to 20 mg/kg/day vs megestrol acetate 160 mg/kg/day) is on record as “better effect”. Further, in assay [5], the “MAFbx mRNA level” value was “decreased” and the “MuRF1 mRNA level” value was “decreased”. For the same molecule, the “plasma concentration of GDF-15” value in assay [6] was “significantly decreased”. Moreover, in assay [7] (paeoniflorin 50 to 200 μM along with TNF-α, FIG. 19), the myotube differentiation result was “promoted”. In addition, the myotube length result in assay [7] (paeoniflorin-treated groups vs negative control group (TNF-α+Pae 0 μM), FIG. 20) was “significantly increased”.
